Legend:
[1] = tested on: recombinant NL4-3 virus (nef section replaced with Renilla luciferase gene) in MT-2 cells; experiment: HIV cell culture assay (antiviral activity, luciferase readout); format: cell-based; conditions: Renilla, NL43, MT-2 cells infected for 4-5 days with recombinant NL4-3 Renilla luciferase virus
How it was run: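 Reporter virus is produced in 293T cells and its titer set in MT-2 cells by luciferase activity. MT-2 cells are then infected in the presence of serially diluted compound for 4-5 days. Luciferase is quantified and EC50 fitted to the median effect equation.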

[2] = Compound cytotoxicity, XTT-based colorimetric assay; format: cell-based; conditions: human; uninfected MT2 cells, day 4, XTT; read-out: CC50
How it was run: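 Follows the antiviral assay procedure, but with uninfected MT2 cells. On day 4, cell viability is measured by XTT-based colorimetry, giving CC50 values.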

SMILES	EC50 [1] [nM]	CC50 at 4 days [2] [nM]
Cc1cc(C2(F)CCC(F)(F)CC2)nc2nc([C@H](Cc3cc(F)cc(F)c3)NC(=O)Cn3nc(C(F)F)c4c3C(F)(F)[C@@H]3C[C@H]43)n(-c3ccc(Cl)c4c(NS(C)(=O)=O)nn(CCN5CC(C)(C)OC(C)(C)C5)c34)c(=O)c12 (atropisomer, axis not shown; (P)) [Example 501, N-[(1S)-1-[(3P)-3-{4-chloro-3-methanesulfonamido-1-[2-(2,2,6,6-tetramethylmorpholin-4-yl)ethyl]-1H-indazol-7-yl}-5-methyl-4-oxo-7-(1,4,4-trifluorocyclohexyl)-3H,4H-pyrido[2,3-d]pyrimidin-2-yl]-2-(3,5-difluorophenyl)ethyl]-2-[(2S,4R)-9-(difluoromethyl)-5,5-difluoro-7,8-diazatricyclo[4.3.0.0^2,^4]nona-1(6),8-dien-7-yl]acetamide]	0.016	> 20
COCCNc1cc(C2CCC(F)(F)CC2)nc2nc([C@H](Cc3cc(F)cc(F)c3)NC(=O)Cn3nc(C(F)F)c4c3C(F)(F)[C@@H]3C[C@H]43)n(-c3ccc(Cl)c4c(NS(C)(=O)=O)nn(CCOC)c34)c(=O)c12 (atropisomer, axis not shown; (P)) [Example 134, N-[(1S)-1-[(3P)-3-[4-chloro-3-methanesulfonamido-1-(2-methoxyethyl)-1H-indazol-7-yl]-7-(4,4-difluorocyclohexyl)-5-[(2-methoxyethyl)amino]-4-oxo-3H,4H-pyrido[2,3-d]pyrimidin-2-yl]-2-(3,5-difluorophenyl)ethyl]-2-[(2S,4R)-9-(difluoromethyl)-5,5-difluoro-7,8-diazatricyclo[4.3.0.0^2,^4]nona-1(6),8-dien-7-yl]acetamide]	0.022	> 50
COCCCn1nc(NS(C)(=O)=O)c2c(Cl)ccc(-n3c([C@H](Cc4cc(F)cc(F)c4)NC(=O)Cn4nc(C(F)F)c5c4C(F)(F)[C@@H]4C[C@H]54)nc4nc(C5CCC(F)(F)CC5)cc(NCCN5CCOCC5(C)C)c4c3=O)c21 (atropisomer, axis not shown; (P)) [Example 477, N-[(1S)-1-[(3P)-3-[4-chloro-3-methanesulfonamido-1-(3-methoxypropyl)-1H-indazol-7-yl]-7-(4,4-difluorocyclohexyl)-5-{[2-(3,3-dimethylmorpholin-4-yl)ethyl]amino}-4-oxo-3H,4H-pyrido[2,3-d]pyrimidin-2-yl]-2-(3,5-difluorophenyl)ethyl]-2-[(2S,4R)-9-(difluoromethyl)-5,5-difluoro-7,8-diazatricyclo[4.3.0.0^2,^4]nona-1(6),8-dien-7-yl]acetamide]	0.013	> 20
Cc1cc(C2CCC(F)(F)CC2)nc2nc([C@H](Cc3cc(F)cc(F)c3)NC(=O)Cn3nc(C4CC4)c4c3C[C@@H]3C[C@H]43)n(-c3ccc(Cl)c4c(NS(C)(=O)=O)nn(CCN5CC(F)(F)C(F)(F)C5)c34)c(=O)c12 (atropisomer, axis not shown; (P)) [Example 248, N-[(1S)-1-[(3P)-3-{4-chloro-3-methanesulfonamido-1-[2-(3,3,4,4-tetrafluoropyrrolidin-1-yl)ethyl]-1H-indazol-7-yl}-7-(4,4-difluorocyclohexyl)-5-methyl-4-oxo-3H,4H-pyrido[2,3-d]pyrimidin-2-yl]-2-(3,5-difluorophenyl)ethyl]-2-[(2S,4S)-9-cyclopropyl-7,8-diazatricyclo[4.3.0.0^2,^4]nona-1(6),8-dien-7-yl]acetamide]	0.018	> 50
COCCCn1nc(NS(C)(=O)=O)c2c(Cl)ccc(-n3c([C@H](Cc4cc(F)cc(F)c4)NC(=O)Cn4nc(C(F)F)c5c4C(F)(F)[C@@H]4C[C@H]54)nc4nc(C5CCC(F)(F)CC5)cc(NCCC5CCO5)c4c3=O)c21 (stereo partly drawn) [Example 564, N-[(1S)-1-[(3P)-3-[4-chloro-3-methanesulfonamido-1-(3-methoxypropyl)-1H-indazol-7-yl]-7-(4,4-difluorocyclohexyl)-5-{[2-(oxetan-2-yl)ethyl]amino}-4-oxo-3H,4H-pyrido[2,3-d]pyrimidin-2-yl]-2-(3,5-difluorophenyl)ethyl]-2-[(2S,4R)-9-(difluoromethyl)-5,5-difluoro-7,8-diazatricyclo[4.3.0.0^2,^4]nona-1(6),8-dien-7-yl]acetamide]	0.012	> 20
COCCCn1nc(NS(C)(=O)=O)c2c(Cl)ccc(-n3c([C@H](Cc4cc(F)cc(F)c4)NC(=O)Cn4nc(C(F)F)c5c4C(F)(F)[C@@H]4C[C@H]54)nc4nc(C5CCC(F)(F)CC5)cc(CN5CC(OC)C5)c4c3=O)c21 (atropisomer, axis not shown; (P)) [Example 604, N-[(1S)-1-[(3P)-3-[4-chloro-3-methanesulfonamido-1-(3-methoxypropyl)-1H-indazol-7-yl]-7-(4,4-difluorocyclohexyl)-5-[(3-methoxyazetidin-1-yl)methyl]-4-oxo-3H,4H-pyrido[2,3-d]pyrimidin-2-yl]-2-(3,5-difluorophenyl)ethyl]-2-[(2S,4R)-9-(difluoromethyl)-5,5-difluoro-7,8-diazatricyclo[4.3.0.0^2,^4]nona-1(6),8-dien-7-yl]acetamide]	0.011	> 20
CCNc1cc(C2CCC(F)(F)CC2)nc2nc([C@H](Cc3cc(F)cc(F)c3)NC(=O)Cn3nc(C4CC4)c4c3C[C@@H]3C[C@H]43)n(-c3ccc(Cl)c4c(NS(C)(=O)=O)nn(CCCOC)c34)c(=O)c12 (atropisomer, axis not shown; (P)) [Example 601, N-[(1S)-1-[(3P)-3-[4-chloro-3-methanesulfonamido-1-(3-methoxypropyl)-1H-indazol-7-yl]-7-(4,4-difluorocyclohexyl)-5-(ethylamino)-4-oxo-3H,4H-pyrido[2,3-d]pyrimidin-2-yl]-2-(3,5-difluorophenyl)ethyl]-2-[(2S,4S)-9-cyclopropyl-7,8-diazatricyclo[4.3.0.0^2,^4]nona-1(6),8-dien-7-yl]acetamide]	0.008	> 20
Cc1cc(C2CCC(F)(F)CC2)nc2nc([C@H](Cc3cc(F)cc(F)c3)NC(=O)Cn3nc(C4CC4)c4c3C[C@@H]3C[C@H]43)n(-c3ccc(Cl)c4c(NS(C)(=O)=O)nn(CC5(N6C[C@@H](C)O[C@@H](C)C6)CC5)c34)c(=O)c12 (relative stereo) [Example 691, N-[(1S)-1-[(3P)-3-[4-chloro-1-({1-[(2R,6S)-2,6-dimethylmorpholin-4-yl]cyclopropyl}methyl)-3-methanesulfonamido-1H-indazol-7-yl]-7-(4,4-difluorocyclohexyl)-5-methyl-4-oxo-3H,4H-pyrido[2,3-d]pyrimidin-2-yl]-2-(3,5-difluorophenyl)ethyl]-2-[(2R*,4R*)-9-cyclopropyl-7,8-diazatricyclo[4.3.0.0^2,^4]nona-1(6),8-dien-7-yl]acetamide]	0.007	> 20
CC(C)[C@H]1CN(CCn2nc(NS(C)(=O)=O)c3c(Cl)ccc(-n4c([C@H](Cc5cc(F)cc(F)c5)NC(=O)Cn5nc(C6CC6)c6c5C[C@@H]5C[C@H]65)nc5nc(C6CCC(F)(F)CC6)ccc5c4=O)c32)CCO1 (atropisomer, axis not shown; (P)) [Example 434, N-[(1S)-1-[(3P)-3-(4-chloro-3-methanesulfonamido-1-{2-[(2S)-2-(propan-2-yl)morpholin-4-yl]ethyl}-1H-indazol-7-yl)-7-(4,4-difluorocyclohexyl)-4-oxo-3H,4H-pyrido[2,3-d]pyrimidin-2-yl]-2-(3,5-difluorophenyl)ethyl]-2-[(2S,4S)-9-cyclopropyl-7,8-diazatricyclo[4.3.0.0^2,^4]nona-1(6),8-dien-7-yl]acetamide]	0.01	> 20
Cc1cc(C2CCC(F)(F)CC2)nc2nc([C@H](Cc3cc(F)cc(F)c3)NC(=O)Cn3nc(C(F)F)c4c3C(F)(F)[C@@H]3C[C@H]43)n(-c3ccc(Cl)c4c(NS(C)(=O)=O)nn([C@@H](C)CN5CC(C)(C)OC(C)(C)C5)c34)c(=O)c12 (atropisomer, axis not shown; (P)) [Example 742, N-[(1S)-1-[(3P)-3-{4-chloro-3-methanesulfonamido-1-[(2S)-1-(2,2,6,6-tetramethylmorpholin-4-yl)propan-2-yl]-1H-indazol-7-yl}-7-(4,4-difluorocyclohexyl)-5-methyl-4-oxo-3H,4H-pyrido[2,3-d]pyrimidin-2-yl]-2-(3,5-difluorophenyl)ethyl]-2-[(2S,4R)-9-(difluoromethyl)-5,5-difluoro-7,8-diazatricyclo[4.3.0.0^2,^4]nona-1(6),8-dien-7-yl]acetamide]	0.026	> 20
Cc1cc(C2(CF)CCC(F)(F)CC2)nc2nc([C@H](Cc3cc(F)cc(F)c3)NC(=O)Cn3nc(C4CC4)c4c3C[C@@H]3C[C@H]43)n(-c3ccc(Cl)c4c(NS(C)(=O)=O)nn(CCN5C[C@@H](C)O[C@@H](C)C5)c34)c(=O)c12 (atropisomer, axis not shown; (P)) [Example 557, N-[(1S)-1-[(3P)-3-(4-chloro-1-{2-[(2R,6S)-2,6-dimethylmorpholin-4-yl]ethyl}-3-methanesulfonamido-1H-indazol-7-yl)-7-[4,4-difluoro-1-(fluoromethyl)cyclohexyl]-5-methyl-4-oxo-3H,4H-pyrido[2,3-d]pyrimidin-2-yl]-2-(3,5-difluorophenyl)ethyl]-2-[(2S,4S)-9-cyclopropyl-7,8-diazatricyclo[4.3.0.0^2,^4]nona-1(6),8-dien-7-yl]acetamide]	0.007	> 20

Source: US12594276B2, “Inhibitors of human immunodeficiency virus replication” (ViiV Healthcare UK (No.5) Limited, priority 2024, dated 2026)
